Data taken from paper PMC9090415, “Discovery of small molecule inhibitors of Plasmodium falciparum apicoplast DNA polymerase” (Journal of Enzyme Inhibition and Medicinal Chemistry, 2022).

Target: P. falciparum apicoplast DNA polymerase (Pf-apPOL) (Plasmodium falciparum, UniProt Q8ILY1)
Test: Fluorescence-based high-throughput DNA polymerase assay (molecular beacon), primary screen and dose-response
Format: biochemical
Settings: for DNA Pol: unit not given, 90 min, 10 µM
How it was run: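 Single-point screening used 10 µM compound with 20 nM polymerase, 20 nM hairpin substrate and 6 µM dNTPs for 90 min at 25 °C. Confirmatory titrations (2.5–80 µM) followed fluorescence at three times, and IC50 was derived from a fit including a cooperativity term n.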

P. falciparum apicoplast DNA polymerase (Pf-apPOL), sequence (Q8ILY1 entry or part of it): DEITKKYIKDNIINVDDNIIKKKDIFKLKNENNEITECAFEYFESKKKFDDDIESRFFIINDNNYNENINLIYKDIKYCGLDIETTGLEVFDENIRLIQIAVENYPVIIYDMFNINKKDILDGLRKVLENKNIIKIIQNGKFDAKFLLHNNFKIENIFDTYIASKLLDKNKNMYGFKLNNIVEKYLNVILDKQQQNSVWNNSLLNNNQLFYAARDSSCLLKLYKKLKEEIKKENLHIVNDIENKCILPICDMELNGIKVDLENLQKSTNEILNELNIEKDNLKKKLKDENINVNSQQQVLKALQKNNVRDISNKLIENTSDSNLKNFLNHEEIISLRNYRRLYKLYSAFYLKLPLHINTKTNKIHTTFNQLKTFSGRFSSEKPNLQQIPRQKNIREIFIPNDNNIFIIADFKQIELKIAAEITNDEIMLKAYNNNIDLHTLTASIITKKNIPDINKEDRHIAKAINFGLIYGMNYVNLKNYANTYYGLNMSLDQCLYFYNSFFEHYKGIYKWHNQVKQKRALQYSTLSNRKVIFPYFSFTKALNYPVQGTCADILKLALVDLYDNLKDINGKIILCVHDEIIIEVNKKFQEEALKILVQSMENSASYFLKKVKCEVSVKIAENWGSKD

CCOc1cccc2cc(C(=O)Nc3nnc(-c4ccno4)o3)oc12 [Molecule 28, CCOc1cccc2c1oc(c2)C(=O)Nc1nnc(o1)c1ccno1]
% inhibition Apo pol 10' (DRC-1, concentration 2.5): 10.6274% | % inhibition Apo pol 10' (DRC-1, concentration 5): 33.541% | % inhibition Apo pol 10' (DRC-1, concentration 10): 66.1299% | % inhibition Apo pol 10' (DRC-1, concentration 20): 85.0301% | % inhibition Apo pol 10' (DRC-1, concentration 40): 91.7568% | % inhibition Apo pol 10' (DRC-1, concentration 80): 93.7028% | % inhibition Apol 90' (DRC-1, 90', concentration 2.5): 2.531% | % inhibition Apol 90' (DRC-1, 90', concentration 5): 15.4654% | % inhibition Apol 90' (DRC-1, 90', concentration 10): 41.5074% | % inhibition Apol 90' (DRC-1, 90', concentration 20): 63.6828% | % inhibition Apol 90' (DRC-1, 90', concentration 40): 78.9695% | % inhibition Apol 90' (DRC-1, 90', concentration 80): 87.3573% | % inhibition apPOL 180' (DRC-1, concentration 2.5): -1.99% | % inhibition apPOL 180' (DRC-1, concentration 5): 5.082% | % inhibition apPOL 180' (DRC-1, concentration 10): 24.8097% | % inhibition apPOL 180' (DRC-1, concentration 20): 44.8371% | % inhibition apPOL 180' (DRC-1, concentration 40): 65.9166% | % inhibition apPOL 180' (DRC-1, concentration 80): 81.0763% | % inhibition Apo pol 5' (DRC-2, 5', concentration 20 (unit not given)): 45% | % inhibition Apo pol 5' (DRC-2, 5', concentration 40 (unit not given)): 45% | % inhibition Apol 40' (DRC-2, 40', concentration 80 (unit not given)): 66% | % inhibition ApPOL 90' (DRC-2, 90', concentration 10 (unit not given)): 45% | % inhibition ApPOL 90' (DRC-2, 90', concentration 40 (unit not given)): 66% | % inhibition Apo pol 5' (DRC-2, 5', concentration 2.5): 16% | % inhibition Apo pol 5' (DRC-2, 5', concentration 5): 28% | % inhibition Apo pol 5' (DRC-2, 5', concentration 10): 46% | % inhibition Apo pol 5' (DRC-2, 5', concentration 20): 45% | % inhibition Apo pol 5' (DRC-2, 5', concentration 40): 45% | % inhibition Apo pol 5' (DRC-2, 5', concentration 80): 39% | % inhibition Apol 40' (DRC-2, 40', concentration 2.5): 14% | % inhibition Apol 40' (DRC-2, 40', concentration 5): 24% | % inhibition Apol 40' (DRC-2, 40', concentration 10): 50% | % inhibition Apol 40' (DRC-2, 40', concentration 20): 57% | % inhibition Apol 40' (DRC-2, 40', concentration 40): 64% | % inhibition Apol 40' (DRC-2, 40', concentration 80): 66% | % inhibition ApPOL 90' (DRC-2, 90', concentration 2.5): 11% | % inhibition ApPOL 90' (DRC-2, 90', concentration 5): 20% | % inhibition ApPOL 90' (DRC-2, 90', concentration 10): 45% | % inhibition ApPOL 90' (DRC-2, 90', concentration 20): 56% | % inhibition ApPOL 90' (DRC-2, 90', concentration 40): 66% | % inhibition ApPOL 90' (DRC-2, 90', concentration 80): 70% | % inhibition apPOL 180' (DRC-2, concentration 2.5): 2% | % inhibition apPOL 180' (DRC-2, concentration 5): 5% | % inhibition apPOL 180' (DRC-2, concentration 10): 29% | % inhibition apPOL 180' (DRC-2, concentration 20): 44% | % inhibition apPOL 180' (DRC-2, concentration 40): 61% | % inhibition apPOL 180' (DRC-2, concentration 80): 72% | DNA Pol (primary screen value of the 186 hits): 79 | DNA Pol (primary screen value, head "DNA Pol"): 79

COc1ccc(NC(=O)Cn2ccc3c(=O)[nH]ccc32)cc1Cl [Molecule 10]
IC50 (supplemental file 2, sheet IC50 nontoxic compounds, Pf-apPOL): 6.2 µM
